Measured values: PMC10572855, “Phenotypic Test of Benzo[4,5]imidazo[1,2-c]pyrimidinone-Based Nucleoside and Non-Nucleoside Derivatives against DNA and RNA Viruses, Including Coronaviruses” (International Journal of Molecular Sciences, 2023)
Read-outs that look alike come from different tables or passages of the source.

Legend:
RSV (Long) = assay: Cytopathic effect reduction, RSV (Long); type: cell-based, Respiratory syncytial virus; conditions: reduction of virus-induced cytopathic effect by 50%, virus input 100 TCID50, read-out: Antiviral Activity (EC50) RSV Long
HCoV OC43 = assay: Cytopathic effect reduction, HCoV OC43; type: cell-based, Human coronavirus OC43; conditions: reduction of virus-induced cytopathic effect by 50%, virus input 100 TCID50, read-out: Antiviral Activity (EC50) HCoV OC43
HCoV 229E = assay: Cytopathic effect reduction, HCoV 229E; type: cell-based, Human coronavirus 229E; conditions: reduction of virus-induced cytopathic effect by 50%, virus input 100 TCID50, read-out: Antiviral Activity (EC50) HCoV 229E
Huh7 cells = assay: Cytotoxicity in Huh7 cells, MTS assay; type: cell-based, Human; conditions: cell growth reduced by 50%
Description: (§1) Cells were seeded at a rate of 5 × 10^3 cells/well into 96-well plates and allowed to proliferate for 24 h. Then, a medium containing different concentrations of the test compounds, starting at 100 mM, was added. After 3 days of incubation at 37 °C, the cell count was determined with a Beckman Coulter counter or, alternatively, cell viability was determined with the colorimetric formazan-based MTS assay. […] The cytotoxic effects of the compounds were also assessed by evaluating the MCC (minimum cytotoxic concentration that causes a microscopically detectable alteration of cell morphology).

HCoV NL63 = assay: Cytopathic effect reduction, HCoV NL63; type: cell-based, Human coronavirus NL63; conditions: reduction of virus-induced cytopathic effect by 50%, virus input 100 TCID50, read-out: Antiviral Activity (EC50) HCoV NL63
HEL299 cells = assay: Cytotoxicity in HEL299 cells, MTS assay; type: cell-based, Human; conditions: cell growth reduced by 50%
Description: as §1

[1] = Cytotoxicity in Huh7 cells, MTS assay; type: cell-based, Human; conditions: human, Huh7 cells, cell growth reduced by 50%
Description: as §1

[2] = Cytotoxicity in HEL299 cells, MTS assay; type: cell-based, Human; conditions: human, HEL299 cells, cell growth reduced by 50%
Description: as §1

[3] = human respiratory syncytial virus

| SMILES | EC50 (RSV (Long)) [µM] | EC50 (HCoV OC43) [µM] | EC50 (HCoV 229E) [µM] | CC50 (Huh7 cells) [µM] | EC50 (HCoV NL63) [µM] | CC50 (HEL299 cells) [µM] | EC50 (RSV (Long); [3]) [µM] | EC50 (HCoV OC43; Betacoronavirus 1, OC43) [µM] | EC50 (HCoV 229E; Human coronavirus 229E) [µM] | CC50 at 3 days [1] [µM] | EC50 (HCoV NL63; Human coronavirus NL63) [µM] | CC50 at 3 days [2] [µM] |
| --- | --- | --- | --- | --- | --- | --- | --- | --- | --- | --- | --- | --- |
| CCCCCCCCCCOc1ccc2c(c1)nc1ccn([C@H]3C[C@H](O)[C@@H](COC(c4ccccc4)(c4ccc(OC)cc4)c4ccc(OC)cc4)O3)c(=O)n12 [Compound 4d, 2-((2R,4S,5R)-5-((bis(4-methoxyphenyl)(phenyl)methoxy)methyl)-4-hydroxytetrahydrofuran-2-yl)-7-(decyloxy)benzo[4,5]imidazo[1,2-c]pyrimidin-1(2H)-one] | > 100 | > 100 | > 100 | > 40 | > 100 | > 40 |  |  |  |  |  |  |
| CCCCCCCCOc1ccc2c(c1)nc1cc[nH]c(=O)n12 [Compound 6c, 7-(octyloxy)benzo[4,5]imidazo[1,2-c]pyrimidin-1(2H)-one] |  |  |  |  |  |  | > 100 | > 100 | > 100 | > 100 | > 100 | > 100 |
| CCCCCCOc1ccc2c(c1)nc1cc[nH]c(=O)n12 [Compound 6b, 7-(hexyloxy)benzo[4,5]imidazo[1,2-c]pyrimidin-1(2H)-one] |  |  |  |  |  |  | > 100 | > 100 | > 100 | > 100 | > 100 | > 100 |
| CCCCCCOc1ccc2c(c1)nc1ccn([C@H]3C[C@H](O)[C@@H](COC(c4ccccc4)(c4ccc(OC)cc4)c4ccc(OC)cc4)O3)c(=O)n12 [Compound 4b, 2-((2R,4S,5R)-5-((bis(4-methoxyphenyl)(phenyl)methoxy)methyl)-4-hydroxytetrahydrofuran-2-yl)-7-(hexyloxy)benzo[4,5]imidazo[1,2-c]pyrimidin-1(2H)-one] | > 100 | > 100 | > 100 | > 100 | > 100 | > 100 |  |  |  |  |  |  |
| CCCCCCCCOc1ccc2c(c1)nc1ccn([C@H]3C[C@H](O)[C@@H](COC(c4ccccc4)(c4ccc(OC)cc4)c4ccc(OC)cc4)O3)c(=O)n12 [Compound 4c, 2-((2R,4S,5R)-5-((bis(4-methoxyphenyl)(phenyl)methoxy)methyl)-4-hydroxytetrahydrofuran-2-yl)-7-(octyloxy)benzo[4,5]imidazo[1,2-c]pyrimidin-1(2H)-one] | > 100 | > 100 | > 100 | > 100 | > 100 | > 40 |  |  |  |  |  |  |
| CCCCOc1ccc2c(c1)nc1ccn([C@H]3C[C@H](O)[C@@H](COC(c4ccccc4)(c4ccc(OC)cc4)c4ccc(OC)cc4)O3)c(=O)n12 [Compound 4a, 2-((2R,4S,5R)-5-((bis(4-methoxyphenyl)(phenyl)methoxy)methyl)-4-hydroxytetrahydrofuran-2-yl)-7-butoxybenzo[4,5]imidazo[1,2-c]pyrimidin-1(2H)-one] | > 100 | > 100 | > 100 | > 40 | > 100 | > 40 |  |  |  |  |  |  |
| CCCCCCCCCCCCOc1ccc2c(c1)nc1ccn([C@H]3C[C@H](O)[C@@H](COC(c4ccccc4)(c4ccc(OC)cc4)c4ccc(OC)cc4)O3)c(=O)n12 [Compound 4e, 2-((2R,4S,5R)-5-((bis(4-methoxyphenyl)(phenyl)methoxy)methyl)-4-hydroxytetrahydrofuran-2-yl)-7-(dodecyloxy)benzo[4,5]imidazo[1,2-c]pyrimidin-1(2H)-one] | > 100 | > 100 | > 100 | > 100 | > 100 | > 100 |  |  |  |  |  |  |
| CCCCOc1ccc2c(c1)nc1ccn([C@@H]3O[C@H](COC(c4ccccc4)(c4ccc(OC)cc4)c4ccc(OC)cc4)[C@@H](O)[C@H]3O)c(=O)n12 [Compound 5a, 2-((2R,3R,4S,5R)-5-((bis(4-methoxyphenyl)(phenyl)methoxy)methyl)-3,4-dihydroxytetrahydrofuran-2-yl)-7-butoxybenzo[4,5]imidazo[1,2-c]pyrimidin-1(2H)-one] | > 100 | > 100 | > 100 | > 100 | > 100 | > 100 |  |  |  |  |  |  |
| CCCCCCCCCCOc1ccc2c(c1)nc1cc[nH]c(=O)n12 [Compound 6d, 7-(decyloxy)benzo[4,5]imidazo[1,2-c]pyrimidin-1(2H)-one] |  |  |  |  |  |  | > 100 | > 100 | > 100 | > 100 | > 100 | > 100 |
| CCCCCCOc1ccc2c(c1)nc1ccn([C@@H]3O[C@H](COC(c4ccccc4)(c4ccc(OC)cc4)c4ccc(OC)cc4)[C@@H](O)[C@H]3O)c(=O)n12 [Compound 5b, 2-((2R,3R,4S,5R)-5-((bis(4-methoxyphenyl)(phenyl)methoxy)methyl)-3,4-dihydroxytetrahydrofuran-2-yl)-7-(hexyloxy)benzo[4,5]imidazo[1,2-c]pyrimidin-1(2H)-one] | > 100 | > 50 | > 100 | > 10 | > 100 | > 100 |  |  |  |  |  |  |
| O=c1n([C@H]2C[C@H](O)[C@@H](CO)O2)ccc2nc3cc(O)ccc3n12 [Compound 2a, 7-hydroxy-2-((2R,4S,5R)-4-hydroxy-5-(hydroxymethyl)tetrahydrofuran-2-yl)benzo[4,5]imidazo[1,2-c]pyrimidin-1(2H)-one] |  |  |  |  |  |  | > 100 | > 100 | > 100 | > 100 | > 100 | > 100 |
| O=c1n([C@@H]2O[C@H](CO)[C@@H](O)[C@H]2O)ccc2nc3cc(O)ccc3n12 [Compound 2b, 2-((2R,3R,4S,5R)-3,4-dihydroxy-5-(hydroxymethyl)tetrahydrofuran-2-yl)-7-hydroxybenzo[4,5]imidazo[1,2-c]pyrimidin-1(2H)-one] |  |  |  |  |  |  | > 100 | > 100 | > 100 | > 100 | > 100 | > 100 |
| CCCCCCCCOc1ccc2c(c1)nc1ccn([C@@H]3O[C@H](COC(c4ccccc4)(c4ccc(OC)cc4)c4ccc(OC)cc4)[C@@H](O)[C@H]3O)c(=O)n12 [Compound 5c, 2-((2R,3R,4S,5R)-5-((bis(4-methoxyphenyl)(phenyl)methoxy)methyl)-3,4-dihydroxytetrahydrofuran-2-yl)-7-(octyloxy)benzo[4,5]imidazo[1,2-c]pyrimidin-1(2H)-one] | > 100 | > 100 | > 100 | > 10 | > 100 | > 100 |  |  |  |  |  |  |
| CCCCCCCCCCCCOc1ccc2c(c1)nc1ccn([C@@H]3O[C@H](COC(c4ccccc4)(c4ccc(OC)cc4)c4ccc(OC)cc4)[C@@H](O)[C@H]3O)c(=O)n12 [Compound 5e, 2-((2R,3R,4S,5R)-5-((bis(4-methoxyphenyl)(phenyl)methoxy)methyl)-3,4-dihydroxytetrahydrofuran-2-yl)-7-(dodecyloxy)benzo[4,5]imidazo[1,2-c]pyrimidin-1(2H)-one] | > 100 | > 100 | > 100 | > 40 | > 100 | > 100 |  |  |  |  |  |  |
| CCCCCCCCCCCCOc1ccc2c(c1)nc1cc[nH]c(=O)n12 [Compound 6e, 7-(dodecyloxy)benzo[4,5]imidazo[1,2-c]pyrimidin-1(2H)-one] |  |  |  |  |  |  | > 100 | > 100 | > 100 | > 100 | > 100 | > 100 |
| CCCCCCCCCCOc1ccc2c(c1)nc1ccn([C@@H]3O[C@H](COC(c4ccccc4)(c4ccc(OC)cc4)c4ccc(OC)cc4)[C@@H](O)[C@H]3O)c(=O)n12 [Compound 5d, 2-((2R,3R,4S,5R)-5-((bis(4-methoxyphenyl)(phenyl)methoxy)methyl)-3,4-dihydroxytetrahydrofuran-2-yl)-7-(decyloxy)benzo[4,5]imidazo[1,2-c]pyrimidin-1(2H)-one] | > 100 | > 100 | > 100 | > 100 | > 100 | > 100 |  |  |  |  |  |  |
| CCCCOc1ccc2c(c1)nc1cc[nH]c(=O)n12 [Compound 6a, 7-butoxybenzo[4,5]imidazo[1,2-c]pyrimidin-1(2H)-one] |  |  |  |  |  |  | > 100 | > 100 | > 100 | > 100 | > 100 | > 100 |
